In publication PMC12707362, “Targeting Aurora Kinases as Essential Cell‐Cycle Regulators to Deliver Multi‐Stage Antimalarials Against Plasmodium Falciparum” (Angewandte Chemie (International Ed. in English), 2025):
Like-named read-outs stand apart in the source and are kept apart here.

Legend:
[1] = test system: multidrug-resistant PfDd2 ABS parasites; assay: SYBR Green I proliferation assay, PfDd2 asexual blood stages; assay type: cell-based; details: Plasmodium falciparum, DD2, read-out: Pf Dd2 ABS IC50
Description: (B) Antiplasmodial activity of nine anticancer aurora kinase inhibitors (selected based on their PfNF54 ABS activity) against P. falciparum multidrug-resistant ABS parasites (PfDd2 and PfK1). (C) Kinobead competitive inhibition data.
(§1) P. falciparum drug sensitive NF54 (PfNF54) and drug-resistant Dd2 (PfDd2, chloroquine, pyrimethamine and mefloquine resistant) strains were cultured in vitro in human O^+/A^+ erythrocytes (5% hematocrit) in complete medium at 2–5% parasitemia, 37 °C, shaking at 60 rpm under hypoxic conditions (90% N2, 5% O2 and 5% CO2). Immature and mature gametocytes were produced from P. falciparum 3D7elo1-pfs16-CBG99 (kind gift from Pietro Alano, ISS, Italy) ^[1] as described^[2,3] by simultaneously applying nutrient starvation and decreasing hematocrit to induce >97% ring-stage ABS parasites (0.5% parasitemia, 6% hematocrit). Gametocytogenesis was followed with daily media changes (including glucose) and ABS parasites removed with 50 mM N-acetylglucosamine (day 1–4 for stage II/III; days 3–7 for stage IV/V).
(§2) All inhibitors were dissolved in dimethyl sulfoxide (DMSO). Antiplasmodium activity of selected anti-cancer inhibitors was determined on P. falciparum NF54 and Dd2 strains, measuring SYBR Green I fluorescence (485 nm excitation, 538 nm emission) as an indicator of proliferation^[4]. Ring-stage ABS parasites (1% parasitemia, 1% hematocrit) were treated with compounds for 96 h at 37 °C with chloroquine disulphate (0.5 μM) as positive drug control. The activity of the inhibitors was tested against immature (>95% stage II/III) and late-stage (>90% stage IV/V) gametocytes using a luciferase reporter assay on 3D7elo1-pfs16-CBG99 ^[1]. […] Luciferase activity was determined using a non-lysing D-luciferin substrate (1 mM in 0.1 M citrate buffer, pH 5.5, 100 μL) and bioluminescence was detected with a GloMax® - Multi Detection System with Instinct® software.

[2] = test system: immature (stage II/III) gametocytes, P. falciparum 3D7elo1-pfs16-CBG99; assay: Luciferase reporter assay, immature gametocytes; assay type: cell-based, Plasmodium falciparum; details: 48 h; for inhibition at 5 µM: Plasmodium falciparum, read-out: Pf Early stage gametocyte %inhibition @ 5 µM
Description: as §1, §2

[3] = test system: late-stage (stage IV/V) gametocytes, P. falciparum 3D7elo1-pfs16-CBG99; assay: Luciferase reporter assay, late-stage gametocytes; assay type: cell-based; details: Plasmodium falciparum, 48 h, read-out: Pf Late stage gametocyte %inhibition @ 5 µM
Description: as §1, §2

[4] = Cytotoxicity counter-screening (MTT), HepG2; details: human, HepG2 CC50, 48 h, MTT
Description: (§3) HepG2 and CHO cells were maintained at 37 °C, under a humidified atmosphere of 5% CO2, in DMEM high glucose media (Gibco) supplemented with 10% heat-inactivated FBS and 1% (v/v) Penicillin-Streptomycin antibiotics. […] The supernatant was discarded, and the cell pellet was resuspended in 1 mL DMEM media for cell counting by Trypan Blue. To determine the toxicity, cells were resuspended and seeded at a concentration of 1x10^4 cells/well in a 96-well plate and incubated for 24 h^[9,10]. Cells were treated in duplicate with a 10-fold serial dilution starting at 100 ug/mL of inhibitor in new media. After 48 h incubation, the viable cells were measured using the MTT tetrazolium reduction assay, where sterile 25 µL of a 5 mg/mL MTT was added to each well and incubated for 4 h before the […] formazan crystals were dissolved with 100 µL DMSO (Merck) per well. The absorbance, a measure of intracellular reduction of MTT, was measured at 540 nm (Multiskan GO). Emetine (50 µM) was included as a positive drug control, and the background was subtracted from all data before being normalised to the untreated^[9,10].

[5] = Cytotoxicity counter-screening (MTT), CHO; details: Chinese hamster
Description: as §3

[6] = target: T1, recombinant PfCLK3 kinase domain (Plasmodium falciparum, UniProt Q8IIL5); assay: ADP-Glo kinase assay, PfCLK3; assay type: biochemical
T1 sequence (Q8IIL5 317-694): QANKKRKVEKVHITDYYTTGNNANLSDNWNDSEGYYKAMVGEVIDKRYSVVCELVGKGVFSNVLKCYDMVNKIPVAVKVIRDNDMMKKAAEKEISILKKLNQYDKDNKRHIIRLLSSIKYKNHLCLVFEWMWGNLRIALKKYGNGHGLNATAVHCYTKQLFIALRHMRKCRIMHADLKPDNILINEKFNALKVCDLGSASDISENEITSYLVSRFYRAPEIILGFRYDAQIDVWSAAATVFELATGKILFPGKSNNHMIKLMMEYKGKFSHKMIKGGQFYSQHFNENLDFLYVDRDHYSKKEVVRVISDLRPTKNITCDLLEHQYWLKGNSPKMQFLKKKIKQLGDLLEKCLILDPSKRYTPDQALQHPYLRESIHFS
Description: (§4) Full-length PfPKG (PF3D7_1436600)^[19] and PvPI4Kβ (PVX_098050)^[20] recombinant proteins were expressed in E. coli and baculovirus-insect cell expression systems. The kinase domain of PfCLK3 (PF3D7_1114700, Gln317 to Ser694) was expressed in E. coli Rosetta™(DE3)pLysS cells (kind gift from Rafael M. Couñago, CQMED, University of Campinas). Briefly, the N-terminal His-tagged kinases were purified using immobilized metal affinity chromatography, followed by anion exchange chromatography in the case of PfPKG, and size exclusion chromatography. Dose-response kinase inhibition assays were carried out using the ADP-Glo kinase assay kit^[21], with 1 nM PfPKG, 10 μM ATP, 20 μM […]-NH2, 1% (v/v) DMSO and inhibitor in PKG assay buffer (25 mM HEPES pH 7.4, 0.1 mg/mL BSA, 0.01% (v/v) Triton-X 100, 20 mM MgCl2, 2 mM DTT, 10 μM cGMP); or 6 nM PvPI4Kβ, 10 μM ATP, 0.1 mg/ml L-alpha-phosphatidylinositol, 1% (v/v) DMSO and inhibitor in PI4Kβ assay buffer (25 mM HEPES pH 7.4, 100 mM NaCl, 3 mM MgCl2, 1 mM DTT, 0.025 mg/ml BSA, 0.2% (v/v) Triton-X-100); or 15 nM PfCLK3, 10 μM ATP, 20 μM myelin basic protein, 1% (v/v) DMSO and inhibitor in assay buffer (50 mM HEPES pH 7.4, 0.1 mg/mL BSA, 0.01% (v/v) Triton-X 100, 20 mM MgCl2, 2 mM DTT). […] Mean IC50 values were calculated from two independent experiments, each with technical duplicates.

recombinant PvPI4Kβ = recombinant PvPI4Kβ (Plasmodium vivax, UniProt A5KB26); assay: ADP-Glo kinase assay, PvPI4Kβ; assay type: biochemical
Description: as §4

[7] = 10 µM ATP, read-out: IC50 PfCLK3
[8] = 10 µM ATP, read-out: IC50 PvPI4Kβ

Chain of recombinant PvPI4Kβ (A5KB26 1-1525): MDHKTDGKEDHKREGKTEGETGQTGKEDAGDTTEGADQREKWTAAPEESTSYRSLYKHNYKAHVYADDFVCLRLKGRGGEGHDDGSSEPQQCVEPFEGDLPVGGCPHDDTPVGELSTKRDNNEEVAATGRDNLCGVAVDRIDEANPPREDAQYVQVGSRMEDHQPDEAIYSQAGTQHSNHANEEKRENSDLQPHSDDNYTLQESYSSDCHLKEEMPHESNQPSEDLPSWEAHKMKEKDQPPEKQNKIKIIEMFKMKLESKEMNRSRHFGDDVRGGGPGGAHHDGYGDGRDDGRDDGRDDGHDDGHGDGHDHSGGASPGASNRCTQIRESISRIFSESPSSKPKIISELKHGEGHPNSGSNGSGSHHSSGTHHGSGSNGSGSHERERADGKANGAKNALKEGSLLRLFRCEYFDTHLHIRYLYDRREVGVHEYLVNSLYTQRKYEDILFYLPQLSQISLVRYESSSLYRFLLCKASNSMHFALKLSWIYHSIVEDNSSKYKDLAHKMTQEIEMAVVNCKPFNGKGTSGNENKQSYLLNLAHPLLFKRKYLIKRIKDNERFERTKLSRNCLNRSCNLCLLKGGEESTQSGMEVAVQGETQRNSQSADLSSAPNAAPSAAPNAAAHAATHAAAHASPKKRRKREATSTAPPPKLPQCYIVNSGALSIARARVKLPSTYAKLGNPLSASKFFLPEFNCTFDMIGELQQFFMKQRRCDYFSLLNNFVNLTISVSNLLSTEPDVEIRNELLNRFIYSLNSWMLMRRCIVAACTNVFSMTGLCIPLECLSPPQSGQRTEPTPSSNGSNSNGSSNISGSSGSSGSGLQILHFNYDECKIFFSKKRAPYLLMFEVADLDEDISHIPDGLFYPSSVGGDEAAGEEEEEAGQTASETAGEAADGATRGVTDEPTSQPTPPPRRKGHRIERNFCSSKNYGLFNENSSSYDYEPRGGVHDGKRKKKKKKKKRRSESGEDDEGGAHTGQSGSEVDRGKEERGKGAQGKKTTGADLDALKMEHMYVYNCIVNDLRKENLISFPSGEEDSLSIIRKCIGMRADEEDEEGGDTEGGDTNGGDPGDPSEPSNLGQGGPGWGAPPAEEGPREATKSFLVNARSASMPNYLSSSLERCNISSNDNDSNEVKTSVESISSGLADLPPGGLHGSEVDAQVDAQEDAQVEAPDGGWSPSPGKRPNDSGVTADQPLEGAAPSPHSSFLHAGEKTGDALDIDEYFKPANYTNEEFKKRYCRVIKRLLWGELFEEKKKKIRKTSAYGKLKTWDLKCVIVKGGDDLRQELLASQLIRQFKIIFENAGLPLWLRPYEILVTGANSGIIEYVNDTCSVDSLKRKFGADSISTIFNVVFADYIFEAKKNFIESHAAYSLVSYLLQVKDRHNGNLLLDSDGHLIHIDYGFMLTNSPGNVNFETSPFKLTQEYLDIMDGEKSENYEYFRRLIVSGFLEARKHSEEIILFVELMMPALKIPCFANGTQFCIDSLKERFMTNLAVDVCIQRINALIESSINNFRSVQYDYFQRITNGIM

Row | SMILES | IC50 [1] | Pf Early stage gametocyte %inhibition @ 5 µM [2] | inhibition at 5 µM [2] | inhibition at 5 µM [3] | CC50 at 48 h [4] | CC50 at 48 h [5] | IC50 [6, 7] | IC50 (recombinant PvPI4Kβ; [8]) | CC50 at 48 h ([4]; HepG2 cells) | CC50 at 48 h ([5]; CHO cells) | IC50 [6] | IC50 (recombinant PvPI4Kβ)
1 | CCN1CCN(C(=O)Cc2ccc(Nc3ncc(F)c(Nc4ccc(C(=O)Nc5ccccc5Cl)cc4)n3)cc2)CC1 [AAi I, Aurora A Inhibitor I] | 0.903 µM | 73,0 ± 3,1% | ~70% | 48.7% | 5.1 µM | 3.6 µM | 2.4 µM | > 10 µM |  |  |  | 
2 | O=C(Nc1c[nH]nc1-c1nc2ccc(CN3CCOCC3)cc2[nH]1)NC1CC1 [AT83, AT9283] | 0.105 µM |  | 53.5% | 48.9% | 12.9 ± 4.5 µM | 4.5 ± 2.1 µM | 0.1 µM | > 10 µM |  |  |  | 
3 | CCN(CCO)CCCOc1ccc2c(Nc3cc(CC(=O)Nc4cccc(F)c4)n[nH]3)ncnc2c1 [AZD-1152, AZD-1152-HQPA] | 0.49 µM |  | 31.1% | 38.2% | > 15 µM | > 15 µM | > 10 µM | > 10 µM |  |  |  | 
4 | O=C(Nc1cccc(Nc2nccc(Nc3cccc(C(F)(F)F)c3)n2)c1)C1CC1 [Aki III, Aurora kinase inhibitor III] | 1.6 µM |  | 27.7% | 3.5% |  |  |  |  | 18.4 µM | 2.4 µM | > 10 µM | > 10 µM
5 | COc1cc(N2CCC(N3CCN(C)CC3)CC2)ccc1Nc1ncc(Cl)c(Nc2ccccc2S(=O)(=O)C(C)C)n1 [TAE684, NVP-TAE684] | 0.227 µM | 65,4 ± 1,7% | ~70% | 50.8% | 8.8 µM | 2 µM | > 10 µM | > 10 µM |  |  |  | 
6 | COc1cc2c(Nc3ccc(NC(=O)c4ccccc4)cc3)ncnc2cc1OCCCN1CCOCC1 [ZM-39, ZM-447439] | 0.374 µM |  | 32.7% | 21.5% |  |  | > 10 µM | > 10 µM | > 15 µM | > 15 µM |  | 
